Measured values from paper PMC5118987 (Antimicrobial Agents and Chemotherapy, 2016).

Experiments:
[1] = target: T1, HIV-1 IN strand transfer activity (Human immunodeficiency virus type 1 group M subtype B, UniProt P04585); assay: IN strand transfer assay (HTRF); format: biochemical; details: purified recombinant HIV-1 IN; mean ± SD, 3 experiments; read-out: IC50 Inhibition of strand transfer
T1 construct: Recombinant IN containing an N-terminal 6His tag was expressed in BL21(DE3) pLysS bacteria; 6His (N); made in house; host or cells: E. coli BL21(DE3) pLysS
Procedure: The strand transfer activity of IN was measured using an assay based on homogeneous time-resolved fluorescence resonance energy transfer (HTRF) ([34]) and has been previously described in detail ([35]). An HTRF-based 3′-processing assay was performed essentially as described for the IN strand transfer assay using a specially designed nonprocessed donor DNA in the absence of target DNA ([35]).

[2] = tested on: HIV-1 integration in MT-2 cells (HIV-1 IIIb); details: HIV-1 IIIb-infected MT-2, relative to mock-treated control
Procedure: Quantification of 2-long terminal repeat (LTR) circles, late reverse transcription products, and integration junctions was adapted from a previously described method ([30]). […] Three hours after viral adsorption, the infected cells were washed twice with 20 ml of RPMI 1640 medium containing 10% FBS and antibiotics and seeded in 6-well plates in 2 ml of culture medium at 1 × 10^6 cells per well. […] These plates were incubated at 37°C for either 12 h (for late reverse transcription product quantification) or 24 h (for 2-LTR circle and Alu-LTR product quantification), after which time the cells were harvested for total DNA isolation. DNA was extracted from each well using the QIAamp DNA minikit (Qiagen, Valencia, CA) and collected as a 100-μl eluate. TaqMan real-time PCR-quantified 2-LTR junctions (2-LTR circles), late reverse transcription products, and integration junctions (Alu-LTR) were normalized to the level of host globin gene in each sample. Quantification by PCR was performed on the ViiA 7 real-time PCR system (Life Technologies, Grand Island, NY).

## O=C(NCc1c(F)cc(F)cc1F)c1cn2c(c(O)c1=O)C(=O)N1[C@H]3CC[C@H](C3)O[C@@H]1C2 [BIC, Bictegravir]
[1]
  IC50: 7.5 ± 0.3 nM
[2]
  reduction of authentic integration products in infected cells: 100 fold
